From PubChem BioAssay AID248 (DTP/NCI, 2004)
Inconclusive results and toxic doses are left out. Cut-off read from the data, not from the text of the source: active = T/C of 150% or more; inactive = T/C below 125%.

System: L1210 leukemia ip in BDF1 mice, survival T/C
Test: NCI In Vivo Anticancer Drug Screen. Data for tumor model L1210 Leukemia (intraperitoneal) in B6D2F1 (BDF1) mice
Details: endpoint: mean survival time, higher = longer survival
Procedure, shortened: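 Value reflects the ratio of survival in compound-treated mice to survival in vehicle-treated controls, with both groups carrying the same transplanted tumor.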

[1] = dose: 100.0 mg/kg/injection, schedule: Q01DX001 (ip), vehicle: saline
[2] = dose: 100.0 mg/kg/injection, schedule: Q01DX009 (ip), vehicle: saline
[3] = dose: 100.0 mg/kg/injection, schedule: Q04DX003 (ip), vehicle: saline
[4] = dose: 200.0 mg/kg/injection, schedule: Q01DX001 (ip), vehicle: saline
[5] = dose: 200.0 mg/kg/injection, schedule: Q01DX009 (ip), vehicle: saline with Tween-80
[6] = dose: 200.0 mg/kg/injection, schedule: Q01DX009 (ip), vehicle: saline
[7] = dose: 200.0 mg/kg/injection, schedule: Q04DX003 (ip), vehicle: saline
[8] = dose: 400.0 mg/kg/injection, schedule: Q01DX001 (ip), vehicle: saline
[9] = dose: 400.0 mg/kg/injection, schedule: Q04DX003 (ip), vehicle: saline
[10] = dose: 200.0 mg/kg/injection, schedule: Q04DX002 (ip), vehicle: saline with Tween-80
[11] = dose: 12.5 mg/kg/injection, schedule: Q04DX003 (ip), vehicle: saline with Tween-80
[12] = dose: 25.0 mg/kg/injection, schedule: Q04DX003 (ip), vehicle: saline with Tween-80
[13] = dose: 50.0 mg/kg/injection, schedule: Q04DX003 (ip), vehicle: saline with Tween-80
[14] = dose: 100.0 mg/kg/injection, schedule: Q04DX003 (ip), vehicle: saline with Tween-80
[15] = dose: 200.0 mg/kg/injection, schedule: Q04DX003 (ip), vehicle: saline with Tween-80
[16] = dose: 400.0 mg/kg/injection, schedule: Q04DX003 (ip), vehicle: saline with Tween-80
[17] = dose: 12.5 mg/kg/injection, schedule: Q04DX003 (ip), vehicle: Klucel (hydroxypropylcellulose) (HPC)
[18] = dose: 25.0 mg/kg/injection, schedule: Q04DX003 (ip), vehicle: Klucel (hydroxypropylcellulose) (HPC)
[19] = dose: 50.0 mg/kg/injection, schedule: Q04DX003 (ip), vehicle: Klucel (hydroxypropylcellulose) (HPC)
[20] = dose: 50.0 mg/kg/injection, schedule: Q01DX009 (ip), vehicle: saline

Measured: T/C

CC(=O)Nc1ccc2c(c1)C(N)c1ccccc1-2 (stereo not given)
inactive: dose: 88.0 mg/kg/injection, schedule: Q01DX Z (ip), vehicle: carboxymethylcellulose (CMC) 103 % of control | dose: 88.0 mg/kg/injection, schedule: Q01DX Z (ip), vehicle: saline 94 % of control | [1] 113 % of control | [2] 105 % of control | [3] 98 % of control | dose: 132.0 mg/kg/injection, schedule: Q01DX009 (ip), vehicle: saline with Tween-80 111 % of control | dose: 132.0 mg/kg/injection, schedule: Q01DX009 (ip), vehicle: saline 99 % of control | dose: 133.0 mg/kg/injection, schedule: Q01DX Z (ip), vehicle: carboxymethylcellulose (CMC) 92 % of control | dose: 133.0 mg/kg/injection, schedule: Q01DX Z (ip), vehicle: saline 98 % of control | [4] 113 % of control | [5] 118 % of control | [6] 108 % of control | dose: 200.0 mg/kg/injection, schedule: Q01DX Z (ip), vehicle: carboxymethylcellulose (CMC) 105 % of control | [7] 103 % of control | dose: 300.0 mg/kg/injection, schedule: Q01DX009 (ip), vehicle: saline 100 % of control | [8] 109 % of control | [9] 122 % of control

CCOc1ccn(CC(=O)N2CCC3(CC2)SSC2(CCN(C(=O)Cn4ccc(OCC)nc4=O)CC2)S3)c(=O)n1
inactive: [3] 90 % of control | [7] 92 % of control | [9] 95 % of control

CC1CN(Cc2ccccc2)C(=S)NC1=O (stereo not given)
inactive: dose: 25.0 mg/kg/injection, schedule: Q01DX Z (ip), vehicle: methylcellulose (MC) 89 % of control | dose: 50.0 mg/kg/injection, schedule: Q01DX Z (ip), vehicle: methylcellulose (MC) 98 % of control

O=C(O)c1cccc2c1-c1ccccc1C(Br)C2Br (stereo not given)
inactive: [10] 101 % of control

O=c1ccccn1CCc1ccccc1
inactive: [11] 95 % of control | [12] 101 % of control | [13] 97 % of control

O=[N+]([O-])c1ccc2nc(-c3ccc(S(=O)(=O)F)cc3)cc(Cl)c2c1
inactive: [14] 98 % of control | [15] 106 % of control | [16] 98 % of control

Nc1ccc(SCc2nc3cccc4c3n2CCC4)cc1
inactive: dose: 100.0 mg/kg/injection, schedule: Q01DX009 (ip), vehicle: saline with Tween-80 88 % of control | [14] 96 % of control | [5] 96 % of control | [15] 94 % of control | dose: 400.0 mg/kg/injection, schedule: Q01DX009 (ip), vehicle: saline with Tween-80 105 % of control | [16] 92 % of control

O=[N+]([O-])c1ccc(/C([O-])=C(\C(=S)Nc2ccccc2Cl)[n+]2ccccc2)cc1
inactive: dose: 100.0 mg/kg/injection, schedule: Q04DX002 (ip), vehicle: saline with Tween-80 96 % of control | [10] 89 % of control | dose: 400.0 mg/kg/injection, schedule: Q04DX002 (ip), vehicle: saline with Tween-80 96 % of control

COC(C)c1nnnn1C (stereo not given)
inactive: [14] 97 % of control | [15] 98 % of control | [16] 101 % of control

N#CCN1C(=O)c2ccccc2C1=O
inactive: dose: 12.5 mg/kg/injection, schedule: Q01DX009 (ip), vehicle: Klucel (hydroxypropylcellulose) (HPC) 96 % of control | [17] 100 % of control | dose: 25.0 mg/kg/injection, schedule: Q01DX009 (ip), vehicle: Klucel (hydroxypropylcellulose) (HPC) 101 % of control | [18] 98 % of control | [19] 100 % of control | dose: 75.0 mg/kg/injection, schedule: Q01DX001 (ip), vehicle: other 107 % of control

Oc1ccc(-c2n[nH]c3c2CCCc2ccccc2-3)cc1
inactive: dose: 12.5 mg/kg/injection, schedule: Q01DX001 (ip), vehicle: saline with Tween-80 101 % of control | [11] 103 % of control | dose: 25.0 mg/kg/injection, schedule: Q01DX001 (ip), vehicle: saline with Tween-80 104 % of control | [12] 106 % of control | dose: 50.0 mg/kg/injection, schedule: Q01DX001 (ip), vehicle: saline with Tween-80 108 % of control | [13] 92 % of control

C[n+]1ccc2ccccc2c1
inactive: [20] 105 % of control | dose: 50.0 mg/kg/injection, schedule: Q04DX003 (ip), vehicle: saline 105 % of control | [2] 100 % of control | [3] 101 % of control | [6] 107 % of control | [7] 106 % of control

O=S(=O)(F)c1cccc(C[P+](c2ccccc2)(c2ccccc2)c2ccccc2)c1
inactive: dose: 25.0 mg/kg/injection, schedule: Q01DX009 (ip), vehicle: saline with Tween-80 95 % of control | dose: 50.0 mg/kg/injection, schedule: Q01DX009 (ip), vehicle: saline with Tween-80 101 % of control | dose: 100.0 mg/kg/injection, schedule: Q04DX003 (ip), vehicle: acetone 94 % of control

NC(=O)N/N=C/c1ccc([N+](=O)[O-])cc1
inactive: dose: 100.0 mg/kg/injection, schedule: Q04DX002 (ip), vehicle: Klucel (hydroxypropylcellulose) (HPC) 96 % of control | dose: 200.0 mg/kg/injection, schedule: Q04DX002 (ip), vehicle: Klucel (hydroxypropylcellulose) (HPC) 110 % of control | dose: 400.0 mg/kg/injection, schedule: Q04DX002 (ip), vehicle: Klucel (hydroxypropylcellulose) (HPC) 107 % of control

O=C(OC(=Nc1ccc([N+](=O)[O-])cc1)c1cc(N2CCCC2)ccn1)c1ccc(-c2ccccc2)cc1
inactive: [1] 98 % of control | [4] 97 % of control | [8] 92 % of control

CCCCCCCCC(=O)NCc1ccco1
inactive: dose: 100.0 mg/kg/injection, schedule: Q01DX009 (ip), vehicle: Klucel (hydroxypropylcellulose) (HPC) 92 % of control | dose: 200.0 mg/kg/injection, schedule: Q01DX009 (ip), vehicle: Klucel (hydroxypropylcellulose) (HPC) 91 % of control | dose: 400.0 mg/kg/injection, schedule: Q01DX009 (ip), vehicle: Klucel (hydroxypropylcellulose) (HPC) 94 % of control

CCCC(C(=O)OCCNC1CCCCC1)c1ccccc1 (stereo not given)
inactive: dose: 75.0 mg/kg/injection, schedule: Q01DX001 (ip), vehicle: saline 104 % of control

CCOC(=O)C(=O)C(C#N)C(=O)OCC (stereo not given)
inactive: [17] 100 % of control | dose: 25.0 mg/kg/injection, schedule: Q01DX009 (ip), vehicle: saline 98 % of control | [18] 100 % of control | [20] 98 % of control | [19] 91 % of control | [2] 95 % of control | dose: 100.0 mg/kg/injection, schedule: Q04DX003 (ip), vehicle: Klucel (hydroxypropylcellulose) (HPC) 97 % of control

CNC1C(O)C(OC2C(N)CC(N)C(OC3OC(CN)C(O)C(O)C3O)C2O)OCC1(C)O (stereo not given)
inactive: dose: 100.0 mg/kg/injection, schedule: Q04DX002 (ip), vehicle: saline 116 % of control | dose: 200.0 mg/kg/injection, schedule: Q04DX002 (ip), vehicle: saline 100 % of control | dose: 400.0 mg/kg/injection, schedule: Q04DX002 (ip), vehicle: saline 95 % of control
